Reference: PubChem BioAssay (NCI)
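Cultured in 96-well plates, cells were exposed to test compound for 48 hours across five concentrations. GI50: concentration for 50% inhibition of growth. TGI denotes the concentration required for complete inhibition of growth.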

Experiments:
Experiment in all cases: NCI anticancer screen, dose series, 48 h
ACHN renal = tested on: ACHN renal
NCI/ADR-RES ovarian = tested on: NCI/ADR-RES ovarian
COLO 205 colon = tested on: COLO 205 colon
SK-MEL-5 melanoma = tested on: SK-MEL-5 melanoma
HOP-62 NSCLC = tested on: HOP-62 NSCLC
MCF7 breast = tested on: MCF7 breast
HCT-116 colon = tested on: HCT-116 colon
A498 renal = tested on: A498 renal
MOLT-4 leukemia = tested on: MOLT-4 leukemia
HCT-15 colon = tested on: HCT-15 colon

Row | Compound | GI50 (ACHN renal) | TGI (ACHN renal) | GI50 (NCI/ADR-RES ovarian) | TGI (NCI/ADR-RES ovarian) | GI50 (COLO 205 colon) | TGI (COLO 205 colon) | GI50 (SK-MEL-5 melanoma) | TGI (SK-MEL-5 melanoma) | GI50 (HOP-62 NSCLC) | TGI (HOP-62 NSCLC) | GI50 (MCF7 breast) | TGI (MCF7 breast) | GI50 (HCT-116 colon) | TGI (HCT-116 colon) | GI50 (A498 renal) | TGI (A498 renal) | GI50 (MOLT-4 leukemia) | TGI (MOLT-4 leukemia) | GI50 (HCT-15 colon) | TGI (HCT-15 colon)
1 | CCCCCN(CCCCC)CC(O)c1ccc(Cl)c2ccccc12 (stereo not drawn) | 10.3 µM | 22.5 µM | 11.1 µM | 24.8 µM | 3.6 µM | 16.5 µM | 8.39 µM | 20.8 µM | 13.1 µM | 26.5 µM | 6.89 µM | 20.5 µM | 2.13 µM | 13.1 µM | 10.3 µM | 29.3 µM | 6.69 µM | 24 µM | 6.98 µM | 22.1 µM
2 | O=c1[nH]c(=O)n(C2OC(CO)C(O)C(O)C2O)cc1F (stereo not drawn) | – | > 100 µM | – | > 100 µM | – | > 100 µM | – | > 100 µM | – | > 100 µM | – | > 100 µM | – | > 100 µM | – | > 100 µM | – | > 100 µM | – | > 100 µM
3 | COc1ccc(-n2cc(-c3cc(OC)c(OC)c(OC)c3)[nH]c2=O)cc1Cl | > 100 µM | > 100 µM | > 100 µM | > 100 µM | > 100 µM | > 100 µM | > 100 µM | > 100 µM | 51.7 µM | > 100 µM | > 100 µM | > 100 µM | > 100 µM | > 100 µM | 73.9 µM | > 100 µM | > 100 µM | > 100 µM | > 100 µM | > 100 µM
4 | c1cc2c(ncc3cscc32)s1 | – | > 100 µM | – | > 100 µM | – | > 100 µM | – | > 100 µM | – | > 100 µM | – | > 100 µM | – | > 31.6 µM | – | > 100 µM | – | > 100 µM | – | > 100 µM
5 | COC(=O)[C@H](Cc1c[nH]c2ccccc12)NC(=O)[C@@H](OC)[C@@H]1Cc2cc3cc(OC4CC(OC5CC(O)C(O)C(C)O5)C(O)C(C)O4)c(C)c(O)c3c(O)c2C(=O)[C@H]1OC1CC(OC2CC(OC3CC(C)(O)C(O)C(C)O3)C(O)C(C)O2)C(O)C(C)O1 (stereo partly drawn) | 0.0475 µM | 0.907 µM | > 11.7 µM | > 16.5 µM | 0.00366 µM | 0.00882 µM | 0.00621 µM | 0.0308 µM | 0.00771 µM | 5.53 µM | 0.00391 µM | 2.55 µM | 0.00537 µM | > 16.5 µM | 0.00517 µM | 0.0249 µM | 0.00654 µM | – | 0.441 µM | > 16.5 µM
6 | O=C(/C(=C/c1cccc([N+](=O)[O-])c1)c1ccccc1)c1ccccc1 | 2.3 µM | 5.41 µM | 2.98 µM | > 100 µM | 3.82 µM | 13.3 µM | 2.39 µM | 6.73 µM | 2.87 µM | 7.56 µM | 3.34 µM | 13.3 µM | 2.01 µM | 4.25 µM | 2.69 µM | 12.9 µM | 3.13 µM | 11.6 µM | 2.75 µM | 16.5 µM
7 | COc1ccc(-c2nnc(COc3ccc(NC(=O)Nc4ccc(Cl)c(C(F)(F)F)c4)cc3F)o2)cc1 | 2.55 µM | 10.7 µM | 3.28 µM | > 100 µM | 2.02 µM | 5.06 µM | 2.1 µM | 5.36 µM | 5.07 µM | 21.8 µM | 3.03 µM | 14.3 µM | 2.49 µM | 11.7 µM | 3.19 µM | 20 µM | 2.39 µM | 11.6 µM | 2.74 µM | 33 µM
8 | Cc1ccc2c(c1)CN(C(=O)CCC(=O)OCc1ccccc1)c1ccc(C)cc1CN2C(=O)CCC(=O)OCc1ccccc1 | – | > 100 µM | – | > 100 µM | – | > 100 µM | – | > 100 µM | – | > 100 µM | – | > 100 µM | – | > 100 µM | – | > 100 µM | – | > 100 µM | – | > 100 µM
9 | COc1ccccc1Cn1cc2c(c1-c1ccccc1)CCc1cnoc1-2 | 5.27 µM | > 100 µM | 0.848 µM | 4.47 µM | 2.56 µM | 7.62 µM | 1.93 µM | 11.2 µM | 3.73 µM | > 100 µM | 2.33 µM | > 100 µM | 2.8 µM | > 100 µM | 1.1 µM | 7.18 µM | 3.42 µM | > 100 µM | 1.71 µM | > 100 µM
10 | Cc1ccc(NC(=O)c2sc3nc(C)c(C(O)c4ccccc4)cc3c2N)cc1 (stereo not drawn) | 0.658 µM | 20.2 µM | 0.39 µM | 18.9 µM | 0.573 µM | > 21.8 µM | 0.417 µM | > 41.8 µM | 0.716 µM | 23.6 µM | 0.368 µM | > 57.6 µM | 0.381 µM | 12.2 µM | 0.233 µM | 1.04 µM | 0.643 µM | > 100 µM | 0.397 µM | > 73 µM
11 | CS(=O)(=O)c1cc(=O)c2ccccc2s1 | – | 5.68 µM | – | 38.8 µM | – | 3.26 µM | – | 28.5 µM | – | 41.3 µM | – | 8.18 µM | – | 4.05 µM | – | 31.4 µM | – | 3.92 µM | – | 4.86 µM
12 | COc1cc2c3c(n(CCNCCCNCCn4c5c(c6cc(OC)c(OC)cc6c4=O)C(=O)c4ccccc4-5)c(=O)c2cc1OC)-c1ccccc1C3=O | 0.693 µM | > 56.3 µM | > 100 µM | > 100 µM | 0.121 µM | 1.01 µM | 4.93 µM | 22.5 µM | 0.0614 µM | 1.9 µM | 0.0878 µM | 2.9 µM | 0.0254 µM | 1.16 µM | 3.12 µM | 14.5 µM | – | 0.0432 µM | 54.2 µM | > 100 µM
13 | Cc1ccc2c3c(c(=O)[nH]c2c1)C1(C(C#N)=C(N)O3)c2cc(Br)ccc2-c2ccc(Br)cc21 | 1.87 µM | 4.15 µM | 6.82 µM | > 100 µM | 1.87 µM | 3.82 µM | 10.2 µM | 24.1 µM | 1.85 µM | 4.19 µM | 2.1 µM | 5.76 µM | 1.94 µM | 4.35 µM | 1.44 µM | 3.61 µM | 2.92 µM | 10.1 µM | 2.23 µM | 5.54 µM
14 | CSc1nc2cc(S(=O)(=O)N3CCCCC3)ccc2s1 | – | > 100 µM | – | > 100 µM | – | > 100 µM | – | > 100 µM | – | > 100 µM | – | > 100 µM | – | > 100 µM | – | > 100 µM | – | > 100 µM | – | > 100 µM
15 | C=C1CC[C@@H]2[C@](C)(COC(C)=O)[C@H](OC(C)=O)CC[C@@]2(C)[C@@H]1CC(Nc1ccc(S(=O)(=O)Nc2ncccn2)cc1)C1=CCOC1=O (stereo partly drawn) | 1.72 µM | 3.27 µM | 1.83 µM | 5.28 µM | 1.78 µM | 3.8 µM | 1.9 µM | 3.85 µM | 3.02 µM | 6.44 µM | 1.07 µM | 4.54 µM | 0.879 µM | 2.49 µM | 12.3 µM | 24.7 µM | 2.27 µM | 8.37 µM | 1.21 µM | 3.33 µM
16 | Nc1nc(-c2cccc(Cl)c2)c(-c2ccc3ncccc3n2)s1 | > 25 µM | > 25 µM | > 25 µM | > 25 µM | > 25 µM | > 25 µM | > 19.6 µM | > 25 µM | > 25 µM | > 25 µM | > 25 µM | > 25 µM | > 25 µM | > 25 µM | 8.4 µM | > 25 µM | > 25 µM | > 25 µM | > 25 µM | > 25 µM
17 | CC[CH2][Sn]([Cl])([Cl])[CH2]CC.Oc1ccccc1C=NCCN=Cc1ccccc1O | 10.1 µM | 21.8 µM | 16 µM | 37.8 µM | 2.97 µM | 10.1 µM | 4.87 µM | 17.5 µM | 12.3 µM | 25.4 µM | 3.12 µM | 15.8 µM | 4.89 µM | 16.3 µM | 2.22 µM | 6.03 µM | 4.88 µM | > 100 µM | 9.63 µM | 24.8 µM
18 | N#Cc1cccc(NC(=O)c2cc(-c3ccc(F)cc3F)ccc2O)c1 | 2.56 µM | 7.89 µM | 2.19 µM | 6.84 µM | 10.9 µM | 28.2 µM | 0.728 µM | 2.15 µM | 2.97 µM | 11 µM | 2.15 µM | 9.72 µM | 2.57 µM | 10.6 µM | 1.27 µM | 4.3 µM | 2.46 µM | 6.65 µM | 2.74 µM | 11.4 µM
19 | COC(=O)C12C3C4C1C1C2C3C41NC(=O)c1csc([C@@H](C[C@H](C(C)C)N(C)C(=O)[C@@H](NC(=O)[C@H]2CCCCN2C)C2CC2)OC(C)=O)n1 (stereo partly drawn) | 0.0903 µM | > 33.3 µM | 2.7 µM | > 33.3 µM | 0.00727 µM | 0.379 µM | 0.00977 µM | 0.526 µM | 0.048 µM | > 33.3 µM | 0.00606 µM | > 33.3 µM | 0.0123 µM | > 33.3 µM | 0.116 µM | > 10.6 µM | 0.00729 µM | > 33.3 µM | 0.138 µM | > 33.3 µM
20 | CCCCN1CSC(=S)N(Cc2ccccc2)C1 | – | > 100 µM | – | > 100 µM | – | 50.6 µM | – | 67.5 µM | – | > 100 µM | – | > 100 µM | – | > 100 µM | – | > 100 µM | – | 78.2 µM | – | > 100 µM
